Here are results for 17 compounds from US7435820B2, “Substituted tetrahydro-1H-pyrazolo [3,4-c]pyridines compositions comprising them, and use” (Aventis Pharma S.A., priority 2003, dated 2008).

The target in one test is T1, human KDR enzyme (Homo sapiens, UniProt P35968).
T1 construct: The cytoplasmic domain of the human KDR enzyme was cloned in GST fusion form; GST; made in house; host or cells: SF21 insect cells (baculovirus, pFastBac)
As to the kind of experiment: KDR kinase inhibition: phosphorylation of PLCγ SH2-SH3 substrate by KDR enzyme, 33P-ATP scintillation plate. The test is classed as biochemical. How it is done: The inhibitory effect of the compounds is determined in an assay for phosphorylation of substrate by the KDR enzyme in vitro using a scintillation technique (96-well plate, NEN).
The cytoplasmic domain of the human KDR enzyme was cloned in GST fusion form into the baculovirus expression vector pFastBac. The protein was expressed in SF21 cells and purified to approximately 60% homogeneity. The KDR kinase activity is measured in 20 mM MOPS, 10 mM MgCl2, 10 mM MnCl2, 1 mM DTT, 2.5 mM EGTA, 10 mM b-glycerophosphate, pH=7.2, in the presence of 10 mM MgCl2, 100 μM Na3VO4 and 1 mM NaF. 10 μl of the compound are added to 70 μl of kinase buffer containing 100 ng of KDR enzyme at 4° C. The reaction is initiated by adding 20 μl of solution containing 2 μg of substrate (SH2-SH3 fragment of PLCγ expressed in the form of an GST fusion protein), 2 μCi γ ^33P[ATP] and 2 μM cold ATP. After incubation for 1 hour at 37° C., the reaction is stopped by adding 1 volume (100 μl) of 200 mM EDTA. The incubation buffer is removed and the wells are washed three times with 300 μl of PBS. The radioactivity is measured in each well using a Top Count NXT (Packard) radioactivity counter.
The background noise is determined by measuring the radioactivity in four different wells containing the radioactive ATP and the substrate alone.
A total activity control is measured in four different wells containing all the reagents (γ^33P-[ATP], KDR and PLC-γ substrate) but in the absence of compound.
The inhibition of the KDR activity with the compound of the invention is expressed as percentage inhibition of the control activity determined in the absence of compound.
The compound SU5614 (Calbiochem) (1 μM) is included in each plate as inhibition control.

A further test addresses T2, human Tie2 (Homo sapiens, UniProt Q02763).
T2 construct: human Tie2 corresponding to amino acids 776-1124 of the intracellular domain was generated by PCR; made in house; host or cells: baculovirus expression system (vector pFastBacGT)
In words: Tie2 kinase inhibition: phosphorylation of GST-PLC (SH2-SH3 fragments) by GST-Tie2, 33P-ATP flashplate. The class given is biochemical. How it is done:
The coding sequence of human Tie2 corresponding to amino acids 776-1124 of the intracellular domain was generated by PCR using the cDNA isolated from human placenta as model. This sequence was introduced into a baculovirus expression vector pFastBacGT in the form of a GST fusion protein.
The inhibitory effect of the molecules is determined in an assay for phosphorylation of PLC by Tie2 in the presence of GST-Tie2 purified to approximately 80% homogeneity. The substrate is made up of the SH2-SH3 fragments of PLC, the latter being expressed in the form of a GST fusion protein.
The kinase activity of Tie2 is measured in a 20 mM MOPS buffer, pH 7.2, containing 10 mM MgCl2, 10 mM MnCl2, 1 mM DTT and 10 mM of glycerophosphate. A reaction mixture made up of 70 μl of kinase buffer containing 100 ng of GST-Tie2 enzyme per well is placed in a flashplate 96-well plate kept on ice. 10 μl of the molecule to be tested, diluted in DMSO, at a concentration of at most 10% are then added. For a given concentration, each measurement is carried out in quadruplicate. The reaction is initiated by adding 20 μl of solution containing 2 μg of GST-PLC, 2 μM of cold ATP and 1 μCi of ^33P[ATP]. After incubation for 1 hour at 37° C., the reaction is stopped by adding 1 volume (100 μl) of 200 mM EDTA. After removal of the incubation buffer, the wells are washed three times with 300 μl of PBS. The radioactivity is measured on a Wallac MicroBeta 1450.
The inhibition of the Tie2 activity is calculated and expressed as percentage inhibition with respect to the control activity determined in the absence of compound.

[1] abbreviates: Assay 1, read-out: KDR % Inhib at 10 μM Assay 1.
Setting [2] is: Assay 2, read-out: KDR % Inhib at 10 μM Assay 2.
Where [3] appears, read: Assay 1, read-out: Tie2 % Inhib at 10 μM (FRX) Assay 1.
The mark [4] stands for this setting: Assay 2, read-out: Tie2 % Inhib at 10 μM (FRX) Assay 2.

Read-outs that look alike come from different tables or passages of the source.

T2 sequence (Q02763 776-1124): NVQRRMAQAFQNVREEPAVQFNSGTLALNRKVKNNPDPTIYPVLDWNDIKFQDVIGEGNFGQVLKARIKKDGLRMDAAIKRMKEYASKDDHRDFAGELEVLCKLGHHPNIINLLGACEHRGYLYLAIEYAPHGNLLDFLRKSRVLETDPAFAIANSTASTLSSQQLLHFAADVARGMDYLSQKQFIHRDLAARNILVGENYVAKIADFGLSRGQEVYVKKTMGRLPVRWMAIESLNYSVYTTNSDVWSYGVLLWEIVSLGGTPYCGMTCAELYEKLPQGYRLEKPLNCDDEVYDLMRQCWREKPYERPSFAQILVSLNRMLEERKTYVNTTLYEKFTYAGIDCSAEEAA
T1 sequence (P35968 786-1356 limits assumed): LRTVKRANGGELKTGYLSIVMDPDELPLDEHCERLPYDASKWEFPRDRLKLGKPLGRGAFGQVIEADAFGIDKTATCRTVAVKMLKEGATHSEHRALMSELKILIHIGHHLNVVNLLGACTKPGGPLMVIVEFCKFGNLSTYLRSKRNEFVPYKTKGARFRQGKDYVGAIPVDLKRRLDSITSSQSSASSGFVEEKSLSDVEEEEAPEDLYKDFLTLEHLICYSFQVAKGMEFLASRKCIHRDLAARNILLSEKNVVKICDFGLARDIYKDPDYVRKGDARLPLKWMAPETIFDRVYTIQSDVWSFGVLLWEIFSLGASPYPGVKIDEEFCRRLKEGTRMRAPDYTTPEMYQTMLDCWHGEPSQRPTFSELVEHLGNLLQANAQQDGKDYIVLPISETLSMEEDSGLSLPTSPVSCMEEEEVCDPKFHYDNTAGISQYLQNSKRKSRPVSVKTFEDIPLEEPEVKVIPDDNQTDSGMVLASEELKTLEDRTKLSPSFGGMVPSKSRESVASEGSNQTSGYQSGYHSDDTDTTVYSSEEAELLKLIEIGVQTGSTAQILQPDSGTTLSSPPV

As for `Cc1cc2nc(-c3[nH]nc4c3CCN(C(=O)c3ccccc3Nc3ccccc3)C4)[nH]c2cc1C` [Example P-31378-112-1], the inhibition at 10 µM at human KDR enzyme (setting [1]) is 96.5%; on human KDR enzyme (setting [2]), 96.7%; on human Tie2 (setting [3]), 83.1%; at human Tie2 (setting [4]), 88.1%.

As to `Cc1cc2nc(-c3[nH]nc4c3CCN(CC(C)(C)C)C4)[nH]c2cc1C` [Chemistry 15], the results for the inhibition at 10 µM on human KDR enzyme (read-out: KDR % Inhib. 10 μM) and at human Tie2 (read-out: Tie2 % Inhib. 10 μM) were 39.3% and 69.4%, respectively.

For the compound `Cc1cc2nc(-c3[nH]nc4c3CCN(C(=O)Nc3cccc(Cl)c3)C4)[nH]c2cc1C` [Chemistry 62], the inhibition at 10 µM at human KDR enzyme (read-out: KDR % Inhib. 10 μM) amounted to 12.8%; on human Tie2 (read-out: Tie2 % Inhib. 10 μM), 21%.

As for `Cc1cc2nc(-c3[nH]nc4c3CCN(C(=O)C(C)(C)C)C4)[nH]c2cc1C` [Chemistry 54], the inhibition at 10 µM at human KDR enzyme (read-out: KDR % Inhib. 10 μM) is 11.2%; on human Tie2 (read-out: Tie2 % Inhib. 10 μM), 81.3%.

As to `COc1cccc(S(=O)(=O)N2CCc3c(n[nH]c3-c3nc4cc(C)c(C)cc4[nH]3)C2)c1` [Chemistry 38], the values for the inhibition at 10 µM on human KDR enzyme (read-out: KDR % Inhib. 10 μM) and at human Tie2 (read-out: Tie2 % Inhib. 10 μM) were 20.9% and 84.6%, respectively.

With `Cc1cc2nc(-c3[nH]nc4c3CCN(C(=O)c3ccccc3Nc3cccc(C(F)(F)F)c3)C4)[nH]c2cc1C` [Example P-31378-112-4], the inhibition at 10 µM at human KDR enzyme (setting [1]) came out at 56.2%; on human KDR enzyme (setting [2]) it was 50.1%; on human Tie2 (setting [3]), 83.1%; on human Tie2 (setting [4]) it was 87.2%.

On to `Cc1cc2nc(-c3[nH]nc4c3CCN(C(=O)c3ccccc3NC(=O)c3ccc(Cl)cc3)C4)[nH]c2cc1C` [Example P-31378-112-15], for which the inhibition at 10 µM on human KDR enzyme (setting [1]) turned out to be 75.5%; on human KDR enzyme (setting [2]), 77.4%; at human Tie2 (setting [3]), 80.1%; on human Tie2 (setting [4]), 83.8%.

For `Cc1cc2nc(-c3[nH]nc4c3CCN(c3ccc(NS(=O)(=O)c5cccs5)cn3)C4)[nH]c2cc1C`, the inhibition at 10 µM at human Tie2 (read-out: Tie2 % Inhib. 10 μM) is 100%.

Turning to `Cc1cc2nc(-c3[nH]nc4c3CCN(C(=O)CCc3ccccc3)C4)[nH]c2cc1C` [Chemistry 50], the inhibition at 10 µM on human KDR enzyme (read-out: KDR % Inhib. 10 μM) was 74.8%; at human Tie2 (read-out: Tie2 % Inhib. 10 μM), 82.4%.

`CCCCS(=O)(=O)N1CCc2c(n[nH]c2-c2nc3cc(C)c(C)cc3[nH]2)C1` [Chemistry 30]: the inhibition at 10 µM at human KDR enzyme (read-out: KDR % Inhib. 10 μM) was 15.3%; at human Tie2 (read-out: Tie2 % Inhib. 10 μM), 44.2%.

`Cc1cc2nc(-c3[nH]nc4c3CCN(C(=O)Nc3ccccc3)C4)[nH]c2cc1C` [Chemistry 59]: the inhibition at 10 µM was determined as 17.6% at human KDR enzyme (read-out: KDR % Inhib. 10 μM) and 33.2% at human Tie2 (read-out: Tie2 % Inhib. 10 μM).

`Cc1cccc(S(=O)(=O)N2CCc3c(n[nH]c3-c3nc4cc(C)c(C)cc4[nH]3)C2)c1` [Chemistry 37]: the inhibition at 10 µM is 41.2% at human KDR enzyme (read-out: KDR % Inhib. 10 μM) and 88.3% at human Tie2 (read-out: Tie2 % Inhib. 10 μM).

Turning to `Cc1cc2nc(-c3[nH]nc4c3CCN(C(=O)c3ccccc3NCc3ccccc3)C4)[nH]c2cc1C` [Example P-31378-112-8], the inhibition at 10 µM on human KDR enzyme (setting [1]) was 86.8%; at human KDR enzyme (setting [2]), 89%; on human Tie2 (setting [3]), 87.8%; on human Tie2 (setting [4]) it was 93.3%.

Turning to `Cc1cc2nc(-c3[nH]nc4c3CCN(Cc3ccco3)C4)[nH]c2cc1C` [Chemistry 11], the inhibition at 10 µM is 70.3% on human KDR enzyme (read-out: KDR % Inhib. 10 μM) and 66.1% at human Tie2 (read-out: Tie2 % Inhib. 10 μM).

Turning to `COc1cc(C)ccc1S(=O)(=O)Nc1ccc(N2CCc3c(n[nH]c3-c3nc4cc(C)c(C)cc4[nH]3)C2)nc1`, the inhibition at 10 µM at human Tie2 (read-out: Tie2 % Inhib. 10 μM) stood at 98%.

For `Cc1cc2nc(-c3[nH]nc4c3CCN(C(=O)CC(C)C)C4)[nH]c2cc1C` [Chemistry 49], the inhibition at 10 µM at human KDR enzyme (read-out: KDR % Inhib. 10 μM) is 12.2%; on human Tie2 (read-out: Tie2 % Inhib. 10 μM), 84.8%.

Turning to `Cc1cc2nc(-c3[nH]nc4c3CCN(C(=O)c3ccccc3Nc3ccccc3)C4)[nH]c2cc1C` [Example P-31378-112-2], on human KDR enzyme (Assay 1), the “KDR % Inhib at 10 μM Assay 1” value came out at 98.1%. Also, the “KDR % Inhib at 10 μM Assay 2” value at human KDR enzyme (Assay 2) turned out to be 97.4%. The “Tie2 % Inhib at 10 μM (FRX) Assay 1” value on human Tie2 (Assay 1, 10 µM) came out at 92.6%. Moreover, on human Tie2 (Assay 2, 10 µM), the “Tie2 % Inhib at 10 μM (FRX) Assay 2” value is 92.6%.
